Source: US20050075375A1 (priority 2003, published 2005)

Tested on: monocistronic NK5.1 HCV replicon in Huh7 cells
Assay: HCV replicon assay, monocistronic replicon cell line
Type: cell-based, hepatitis C virus
Conditions: Hepatitis C virus, Huh-7; monocistronic NK5.1 HCV replicon in Huh7 cells; median value; read-out: Mono EC50 Median
Procedure, shortened: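 Huh7 cells carrying the monocistronic NK5.1 replicon, seeded 24 h before dosing, were exposed to six-point half-log compound series (0.6% DMSO) for 3 days at 37 °C. Replicon RNA was quantified by TaqMan RT-PCR, normalised to GAPDH and compared with DMSO controls to derive EC50.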

For c1ccc2c(-c3nc(-c4nccc5ccccc45)n[nH]3)cccc2c1 [Compound 366, 1-(5-Naphthalen-1-yl-1H-[1,2,4]triazol-3-yl)-isoquinoline], the EC50 was greater than 32 µM.
For CC(C)(C)c1ccc(O)c(-c2nc(-c3nccc4ccccc34)n[nH]2)c1 [Compound 367, 4-tert-Butyl-2-(5-isoquinolin-1-yl-2H-[1,2,4]triazol-3-yl)-phenol], the EC50 was greater than 32 µM.
O=[N+]([O-])c1ccc(O)c(-c2nc(-c3nccc4ccccc34)n[nH]2)c1 [Compound 368, 4-Nitro-2-(5-isoquinolin-1-yl-2H-[1,2,4]triazol-3-yl)-phenol] gave an EC50 greater than 32 µM.
Oc1ccc(F)cc1-c1nc(-c2nccc3ccccc23)n[nH]1 [Compound 369, 4-Fluoro-2-(5-isoquinolin-1-yl-2H-[1,2,4]triazol-3-yl)-phenol] gave an EC50 of 3.5 µM.
COc1ccc(O)c(-c2nc(-c3nccc4ccccc34)n[nH]2)c1 [Compound 370, 4-Methoxy-2-(5-isoquinolin-1-yl-2H-[1,2,4]triazol-3-yl)-phenol] was tested, and the EC50 was 2.9 µM.
Oc1ccc(Cl)cc1-c1nc(-c2nccc3ccccc23)n[nH]1 [Compound 371, 4-Chloro-2-(5-isoquinolin-1-yl-2H-[1,2,4]triazol-3-yl)-phenol] gave an EC50 greater than 19 µM.
Compound CCOc1cccc(-c2nc(-c3nccc4ccccc34)n[nH]2)c1O [Compound 372, 6-Ethoxy-2-(5-isoquinolin-1-yl-2H-[1,2,4]triazol-3-yl)-phenol] has an EC50 greater than 19 µM.
With Oc1cc(OCc2ccccc2)ccc1-c1nc(-c2nccc3ccccc23)n[nH]1 [Compound 373, 5-Benzyloxy-2-(5-isoquinolin-1-yl-2H-[1,2,4]triazol-3-yl)-phenol] the EC50 was greater than 19 µM.
Oc1ccc(Br)cc1-c1nc(-c2nccc3ccccc23)n[nH]1 [Compound 374, 4-Bromo-2-(5-isoquinolin-1-yl-2H-[1,2,4]triazol-3-yl)-phenol] gave an EC50 greater than 19 µM.
Work on Cc1ccc(O)c(-c2nc(-c3nccc4ccccc34)n[nH]2)c1 [Compound 375, 4-Methyl-2-(5-isoquinolin-1-yl-2H-[1,2,4]triazol-3-yl)-phenol] yielded an EC50 greater than 19 µM.
With COc1ccc(-c2nc(-c3nccc4ccccc34)n[nH]2)c(O)c1 [Compound 376, 5-Methoxy-2-(5-isoquinolin-1-yl-2H-[1,2,4]triazol-3-yl)-phenol] the EC50 was greater than 19 µM.
For Oc1ccccc1-c1nc(-c2nccc3ccccc23)n[nH]1 [Compound 377, 2-(5-isoquinolin-1-yl-2H-[1,2,4]triazol-3-yl)-phenol], the EC50 was greater than 19 µM.
COc1cccc(-c2nc(-c3nccc4ccccc34)n[nH]2)c1O [Compound 378, 6-Methoxy-2-(5-isoquinolin-1-yl-2H-[1,2,4]triazol-3-yl)-phenol] showed an EC50 of 16 µM.
Compound O=[N+]([O-])c1cccc(-c2nc(-c3nccc4ccccc34)n[nH]2)c1 [Compound 379] has an EC50 greater than 19 µM.
Compound COc1ccc(OC)c(-c2nc(-c3nccc4ccccc34)n[nH]2)c1 [Compound 380] has an EC50 greater than 19 µM.
With Oc1ccc(O)c(-c2nc(-c3nccc4ccccc34)n[nH]2)c1 [Compound 381, 4-Hydroxy-2-(5-isoquinolin-1-yl-2H-[1,2,4]triazol-3-yl)-phenol] the EC50 was 8.5 µM.
COc1cccc(-c2nc(-c3nccc4ccccc34)n[nH]2)c1 [Compound 382] showed an EC50 greater than 19 µM.
With COc1ccc(F)c(-c2nc(-c3nccc4ccccc34)n[nH]2)c1 [Compound 383] the EC50 was greater than 19 µM.
In the case of Oc1ccc2ccccc2c1-c1nc(-c2nccc3ccccc23)n[nH]1 [Compound 385, 1-(5-isoquinolin-1-yl-2H-[1,2,4]triazol-3-yl)-naphthalen-2-ol], the EC50 is reported as greater than 19 µM.
Work on Oc1ccc(O)c(-c2nc(-c3ccccn3)n[nH]2)c1 [Compound 386, 4-Hydroxy-2-(5-pyridin-2-yl-2H-[1,2,4]triazol-3-yl)-phenol] yielded an EC50 greater than 19 µM.
For COc1cccc(-c2nc(-c3ccccn3)n[nH]2)c1 [Compound 387, 2-[5-(3-Methoxy-phenyl)-1H-[1,2,4]triazol-3-yl]-pyridine], the EC50 was greater than 19 µM.
